Assay results published in patent US12390451B2, “Small molecule inhibitor of the JAK family of kinases” (Janssen Pharmaceutica NV, priority 2021, dated 2025).
Read-outs that look alike come from different tables or passages of the source.

Test: Tissue distribution in rats after oral administration
Assay type: in vivo, male Sprague-Dawley rats
Conditions: male, Sprague-Dawley, rat, PO 25 mg/kg
Protocol: Preliminary tissue distribution studies were conducted in male Sprague-Dawley rats (N=3/time point) at 0.5, 1, 2, 3, 5, 7, and 24 hours following oral administration of compound of Formula I at a dose of 25 mg/kg. The following tissues were harvested for compound concentration analysis: liver, kidney, brain, muscle, epididymis fat, duodenum, jejunum, ileum, colon (both lumen content and tissue), and plasma. The results of this study indicated low systemic exposure and high local concentrations (intestinal tract).

[1] = colon tissue, average, N = 3, read-out: Colon Tissue concentration
[2] = duodenum lumen content, average, N = 3, read-out: Duod. Content concentration
[3] = duodenum tissue, average, N = 3, read-out: Duod. Tissue concentration
[4] = ileum lumen content, average, N = 3, read-out: Ileum Content concentration
[5] = ileum tissue, average, N = 3, read-out: Ileum Tissue concentration
[6] = jejunum lumen content, average, N = 3, read-out: Jejunum Content concentration
[7] = jejunum tissue, average, N = 3, read-out: Jejunum Tissue concentration
[8] = kidney, average ±SD, read-out: Kidney concentration
[9] = liver, average ±SD, read-out: Liver concentration
[10] = plasma, average ±SD, read-out: Plasma concentration

concentration at 7 h [1]: 36700 ng/g | concentration at 24 h [1]: 353 ng/g | concentration at 0.5 h [2]: 329000 ng/mL | concentration at 1 h [2]: 45500 ng/mL | concentration at 2 h [2]: 20200 ng/mL | concentration at 3 h [2]: 15800 ng/mL | concentration at 5 h [2]: 4470 ng/mL | concentration at 7 h [2]: 2630 ng/mL | concentration at 24 h [2]: 60 ng/mL | concentration at 0.5 h [3]: 35200 ng/g | concentration at 1 h [3]: 16700 ng/g | concentration at 2 h [3]: 3170 ng/g | concentration at 3 h [3]: 3840 ng/g | concentration at 5 h [3]: 1100 ng/g | concentration at 7 h [3]: 366 ng/g | concentration at 24 h [3]: 17 ng/g | concentration at 0.5 h [4]: 644 ng/mL | concentration at 1 h [4]: 496 ng/mL | concentration at 2 h [4]: 725000 ng/mL | concentration at 5 h [4]: 597000 ng/mL | concentration at 7 h [4]: 133000 ng/mL | concentration at 24 h [4]: 893 ng/mL | concentration at 0.5 h [5]: 1340 ng/g | concentration at 1 h [5]: 252 ng/g | concentration at 2 h [5]: 8950 ng/g | concentration at 3 h [5]: 50800 ng/g | concentration at 5 h [5]: 18000 ng/g | concentration at 7 h [5]: 6490 ng/g | concentration at 0.5 h [6]: 533000 ng/mL | concentration at 1 h [6]: 249000 ng/mL | concentration at 2 h [6]: 90700 ng/mL | concentration at 3 h [6]: 48000 ng/mL | concentration at 5 h [6]: 26300 ng/mL | concentration at 7 h [6]: 10300 ng/mL | concentration at 24 h [6]: 228 ng/mL | concentration at 0.5 h [7]: 47200 ng/g | concentration at 1 h [7]: 23500 ng/g | concentration at 2 h [7]: 8230 ng/g | concentration at 3 h [7]: 3980 ng/g | concentration at 5 h [7]: 1810 ng/g | concentration at 7 h [7]: 788 ng/g | concentration at 24 h [7]: 27 ng/g | concentration at 0.5 h [8]: 57.9 ± 26.2 ng/g | concentration at 2 h [8]: 24.3 ± 6.6 ng/g | concentration at 3 h [8]: 30 ± 9.4 ng/g | concentration at 5 h [8]: 12.9 ± 3.6 ng/g | concentration at 7 h [8]: 19.9 ± 7.8 ng/g | concentration at 0.5 h [9]: 158 ± 104 ng/g | concentration at 1 h (liver, SD NA, read-out: Liver concentration): 70.4 ng/g | concentration at 2 h [9]: 49.9 ± 17.5 ng/g | concentration at 3 h [9]: 29.6 ± 14.5 ng/g | concentration at 5 h [9]: 18.7 ± 3 ng/g | concentration at 7 h [9]: 20.7 ± 3 ng/g | concentration at 0.5 h (muscle, average ±SD, read-out: Muscle concentration): 16.7 ± 15 ng/g | concentration at 0.5 h [10]: 6.3 ± 1.1 ng/mL | concentration at 2 h [10]: 3.7 ± 0.9 ng/mL | concentration at 3 h [10]: 3.1 ± 1.1 ng/mL | concentration at 5 h [10]: 1.5 ± 0.7 ng/mL | concentration at 7 h [10]: 2.1 ± 0.5 ng/mL
SMILES: CC(C)(O)CNC(=O)Cc1nc2cnc3[nH]ccc3c2n1[C@H]1CC[C@H](CC#N)CC1 [Compound of Formula I, 2-(1-((1r,4r)-4-(Cyanomethyl)cyclohexyl)-1,6-dihydroimidazo[4,5-d]pyrrolo[2,3-b]pyridin-2-yl)-N-(2-hydroxy-2-methylpropyl)acetamide]
